In patent US20260053861A1, “CELL COMPOSITIONS AND METHODS OF USING THE SAME” (THE REGENTS OF THE UNIVERSITY OF CALIFORNIA, priority 2022, published 2026) one finds z.score.t data, which are given here for 26 compounds.

Counter-ions that a name gives are not always drawn.

One assay deals with hPSC-SCs.
Conditions: not given
Compound `C[C@@H]1C(=O)O[C@H]2C[C@@]34[C@H]5C[C@@H](C(C)(C)C)[C@]36[C@@H](OC(=O)[C@@H]6O)O[C@@]4(C(=O)O5)[C@]21O` [Ginkgolide A] returned a z.score.t of 1.034.
Same read-out and setting: the result for `O=C(OCC(O)CO)c1ccccc1Nc1ccnc2cc(Cl)ccc12` (centres unmarked) [Glafenine hydrochloride] reads −0.727; that for `CCC1(c2ccc(N)cc2)CCC(=O)NC1=O` (centres unmarked) [Glutethimide, para-amino], 0.1149; that for `Cc1cc2c(C(C)C)c(O)c(O)c(C=O)c2c(O)c1-c1c(C)cc2c(C(C)C)c(O)c(O)c(C=O)c2c1O` [Gossypol], −2.368.
Take `COc1ccc2c3c([nH]c2c1)C(C)=NCC3.Cl.O.O` [Harmaline hydrochloride dihydrate]: the z.score.t is given as 1.306.
Same read-out and setting: under `COc1ccc2c(c1)[nH]c1c(C)nccc12.Cl` [Harmine hydrochloride] stands −1.122; under `Cc1[nH]ccc2c1[nH]c1cc(=O)ccc12` [Harmol hydrochloride monohydrate], −0.7233.

Staying with this assay, now noted: HTS viability of hPSC-SCs in the presence of 30 mM glucose; Prestwick library; Table S4.
As to `C=C1C[C@]23C[C@@]1(O)CC[C@H]2[C@@]12C=C[C@H](O)[C@@](C)(C(=O)O1)[C@H]2[C@@H]3C(=O)O` [Gibberellic acid], the z.score.t was −0.3452.
On the same count and under the same terms, under `COc1ccc(Cl)cc1C(=O)NCCc1ccc(S(=O)(=O)NC(=O)NC2CCCCC2)cc1` [Glibenclamide] stands −0.7776; under `Cc1ccc(S(=O)(=O)NC(=O)NN2CC3CCCC3C2)cc1` (centres unmarked) [Gliclazide], −0.03629.
`CCC1=C(C)CN(C(=O)NCCc2ccc(S(=O)(=O)NC(=O)N[C@H]3CC[C@H](C)CC3)cc2)C1=O` [Glimepiride]: the z.score.t was 1.252.
On the same count and under the same terms, the result for `Cc1cnc(C(=O)NCCc2ccc(S(=O)(=O)NC(=O)NC3CCCCC3)cc2)cn1` [Glipizide] reads 1.43; that for `COc1ccc2c(c1)C(=O)N(CCc1ccc(S(=O)(=O)NC(=O)NC3CCCCC3)cc1)C(=O)C2(C)C` [Gliquidone], 2.369.
Regarding `C[C@H](CCC(=O)NCC(=O)O)[C@H]1CC[C@H]2[C@@H]3[C@H](O)C[C@@H]4C[C@H](O)CC[C@]4(C)[C@H]3C[C@H](O)[C@]12C` [Glycocholic acid], the z.score.t is reported as −0.8478.
As for `C[N+]1(C)CCC(OC(=O)C(O)(c2ccccc2)C2CCCC2)C1` (centres unmarked) [Glycopyrrolate], the z.score.t is recorded as −0.1913.
Turning to `CN(C)Cc1c[nH]c2ccccc12` [Gramine], the z.score.t was 1.018.
On to `Cn1c(-c2ccc3c(c2)OCO3)cc(=O)c2ccccc21` [Graveoline], for which the z.score.t was 0.495.
In the case of `COC1=CC(=O)C[C@@H](C)[C@]12Oc1c(Cl)c(OC)cc(OC)c1C2=O` [Griseofulvin], the z.score.t was −0.636.
The same measure, in the same setting: the result for `COc1ccccc1OCC(O)CO` (centres unmarked) [Guaifenesin] reads −0.3023; that for `N=C(N)N/N=C/c1c(Cl)cccc1Cl` [Guanabenz acetate], 0.5179; that for `N=C(N)NC(=O)Cc1c(Cl)cccc1Cl` [Guanfacine hydrochloride], 0.9047.
For the compound `CC1(C)O[C@@H]2C[C@H]3[C@@H]4CCC5=CC(=O)CC[C@]5(C)[C@@]4(F)[C@@H](O)C[C@]3(C)[C@]2(C(=O)CCl)O1` [Halcinonide], the z.score.t was found to be 1.238.
`CCCCN(CCCC)CCC(O)c1cc2c(Cl)cc(Cl)cc2c2cc(C(F)(F)F)ccc12` (centres unmarked) [Halofantrine hydrochloride]: the z.score.t was −1.422.
`O=C(CCCN1CCC(O)(c2ccc(Cl)cc2)CC1)c1ccc(F)cc1` [Haloperidol]: the z.score.t is on record as −1.111.
Same read-out and setting: the result for `CC1=NCCc2c1[nH]c1cc(O)ccc21.Cl.O.O` [Harmalol hydrochloride dihydrate] reads −0.7953; that for `C[C@]1(OC(=O)/C=C/c2ccccc2)C[C@@H](O)[C@]2(O)C=CO[C@@H](O[C@@H]3O[C@H](CO)[C@@H](O)[C@H](O)[C@H]3O)[C@@H]21` [Harpagoside], −0.8347.
